According to article PMC7071106 (Molecules, 2020):
Like-named read-outs stand apart in the source and are kept apart here.

Key:
Giardia duodenalis = assay: In vitro giardicidal susceptibility assay (trophozoite growth inhibition); assay type: cell-based, Giardia duodenalis (G. intestinalis strain IMSS:0696:1); settings: for SI = CC50/IC50 G. duodenalis: CC50 VERO cells / IC50 G. duodenalis; for IC50: trophozoites, 48 h incubation then 48 h subculture, means of three experiments, read-out: IC50 G. duodenalis
Protocol: (§1) G. intestinalis strain IMSS:0696:1 and T. vaginalis strain GT3 were cultured in TYI-S-33 medium, complemented with 10% calf serum and bovine bile. […] Subsequently, trophozoites were washed and subcultured for another 48 h in fresh medium without any drugs. Once this time was reached, trophozoites were counted and the median inhibitory concentration (IC50) was calculated. All the experiments were completed in triplicate.

Trichomonas vaginalis = assay: In vitro trichomonicidal susceptibility assay (trophozoite growth inhibition); assay type: cell-based, Trichomonas vaginalis strain GT3; settings: for SI = CC50/IC50 T. vaginalis: CC50 VERO cells / IC50 T. vaginalis; for IC50: Trichomonas vaginalis, trophozoites, 48 h incubation then 48 h subculture, means of three experiments, read-out: IC50 T. vaginalis
Protocol: as §1

[1] = Cytotoxicity on VERO cell line (sulforhodamine B method); assay type: cell-based, mammalian; settings: African green monkey, 1–100 µM, means of three experiments
Protocol: We cultivated 1.5 × 10^4 VERO cells in a 96-well plate and incubated in DMEM media complemented with 10% fetal bovine serum, 100 µg/mL streptomycin, and 100 UI/mL penicillin. The culture was incubated at 37 °C in a 5% CO2 atmosphere with 95% humidity for 48 h. […] After 48 h of incubation, viability of the cells was estimated using the sulforhodamine B method. The concentration of the compounds that killed 50% of the cells (CC50) was calculated by nonlinear fit (GraphPad Prism 4 software). All concentrations were evaluated in triplicate.

In the case of Cc1ncc([N+](=O)[O-])n1CCOC(=O)NC1CCCCC1 [Compound 1, 2-(2-methyl-5-nitro-1H-imidazol-1-yl)ethyl cyclohexylcarbamate], the “SI = CC50/IC50 G. duodenalis” value (Giardia duodenalis) is reported as greater than 217, the IC50 (Giardia duodenalis; Giardia duodenalis, 48 h) is reported as 0.46 ± 0.01 µM and the “SI = CC50/IC50 T. vaginalis” value (Trichomonas vaginalis) is reported as greater than 1666. The IC50 (Trichomonas vaginalis) was 0.06 ± 0.01 µM and the CC50 at 48 h ([1]; VERO cells) was greater than 100 µM.
In the case of Cc1ncc([N+](=O)[O-])n1CCOC(=O)Nc1ccccc1 [Compound 2, 2-(2-methyl-5-nitro-1H-imidazol-1-yl)ethyl phenylcarbamate], the “SI = CC50/IC50 G. duodenalis” value (Giardia duodenalis) is reported as greater than 102, the IC50 (Giardia duodenalis) is reported as 0.98 ± 0.01 µM and the “SI = CC50/IC50 T. vaginalis” value (Trichomonas vaginalis) is reported as greater than 1111. The IC50 (Trichomonas vaginalis) was 0.09 ± 0.01 µM and the CC50 at 48 h ([1]; VERO cells) was greater than 100 µM.
In the case of Cc1ncc([N+](=O)[O-])n1CCOC(=O)Nc1ccc(Cl)cc1 [Compound 3, 2-(2-methyl-5-nitro-1H-imidazol-1-yl)ethyl (4-chlorophenyl)carbamate], the “SI = CC50/IC50 G. duodenalis” value (Giardia duodenalis) is reported as greater than 87, the IC50 (Giardia duodenalis; Giardia duodenalis, 48 h) is reported as 1.14 ± 0.12 µM and the “SI = CC50/IC50 T. vaginalis” value (Trichomonas vaginalis) is reported as greater than 55. It also gave an IC50 (Trichomonas vaginalis) of 1.79 ± 0.12 µM and a CC50 at 48 h ([1]; VERO cells) greater than 100 µM.
For Cc1ncc([N+](=O)[O-])n1CCOC(=O)Nc1ccc(F)cc1 [Compound 4, 2-(2-methyl-5-nitro-1H-imidazol-1-yl)ethyl (4-fluorophenyl)carbamate], the “SI = CC50/IC50 G. duodenalis” value (Giardia duodenalis) was greater than 49, the IC50 (Giardia duodenalis; Giardia duodenalis, 48 h) was 2.03 ± 0.01 µM and the “SI = CC50/IC50 T. vaginalis” value (Trichomonas vaginalis) was greater than 31. It also gave an IC50 (Trichomonas vaginalis) of 3.22 ± 0.21 µM and a CC50 at 48 h ([1]; VERO cells) greater than 100 µM.
In the case of Cc1ncc([N+](=O)[O-])n1CCOC(=O)Nc1ccc([N+](=O)[O-])cc1 [Compound 5, 2-(2-methyl-5-nitro-1H-imidazol-1-yl)ethyl (4-nitrophenyl)carbamate], the “SI = CC50/IC50 G. duodenalis” value (Giardia duodenalis) is reported as greater than 41, the IC50 (Giardia duodenalis; Giardia duodenalis, 48 h) is reported as 2.43 ± 0.02 µM and the “SI = CC50/IC50 T. vaginalis” value (Trichomonas vaginalis) is reported as greater than 16. For the same compound, the IC50 (Trichomonas vaginalis) was 6.25 ± 0.12 µM and the CC50 at 48 h ([1]; read-out: CC50 VERO Cells) was greater than 100 µM.
In the case of Cc1ncc([N+](=O)[O-])n1CC(C)OC(=O)NC1CCCCC1 (centres unmarked) [Compound 6, 1-methyl-2-(2-methyl-5-nitro-1H-imidazol-1-yl)ethyl cyclohexylcarbamate], the “SI = CC50/IC50 G. duodenalis” value (Giardia duodenalis) is reported as greater than 37, the IC50 (Giardia duodenalis; Giardia duodenalis, 48 h) is reported as 2.64 ± 0.61 µM and the “SI = CC50/IC50 T. vaginalis” value (Trichomonas vaginalis) is reported as greater than 11. The IC50 (Trichomonas vaginalis) was 8.64 ± 0.73 µM, the CC50 at 48 h ([1]; VERO cells) was greater than 100 µM and the melting point was 219.2 to 222.7 °C.
In the case of Cc1ncc([N+](=O)[O-])n1CC(C)OC(=O)Nc1ccccc1 (centres unmarked) [Compound 7, 1-methyl-2-(2-methyl-5-nitro-1H-imidazol-1-yl)ethyl phenylcarbamate], the “SI = CC50/IC50 G. duodenalis” value (Giardia duodenalis) is reported as greater than 59, the IC50 (Giardia duodenalis; Giardia duodenalis, 48 h) is reported as 1.67 ± 0.21 µM and the “SI = CC50/IC50 T. vaginalis” value (Trichomonas vaginalis) is reported as greater than 15. The IC50 (Trichomonas vaginalis) was 6.52 ± 0.71 µM, the CC50 at 48 h ([1]; VERO cells) was greater than 100 µM and the melting point was 238.9 to 240.5 °C.
With Cc1ncc([N+](=O)[O-])n1CC(C)OC(=O)Nc1ccc(Cl)cc1 (centres unmarked) [Compound 8, 1-methyl-2-(2-methyl-5-nitro-1H-imidazol-1-yl)ethyl (4-chlorophenyl)carbamate] the “SI = CC50/IC50 G. duodenalis” value (Giardia duodenalis) was greater than 24, the IC50 (Giardia duodenalis; Giardia duodenalis, 48 h) was 4.05 ± 0.24 µM and the “SI = CC50/IC50 T. vaginalis” value (Trichomonas vaginalis) was greater than 16. For the same compound, the IC50 (Trichomonas vaginalis) was 5.93 ± 0.51 µM, the CC50 at 48 h ([1]; VERO cells) was greater than 100 µM and the melting point was 268.1 °C (dec.).
With Cc1ncc([N+](=O)[O-])n1CC(C)OC(=O)Nc1ccc(F)cc1 (centres unmarked) [Compound 9, 1-methyl-2-(2-methyl-5-nitro-1H-imidazol-1-yl)ethyl (4-fluorophenyl)carbamate] the “SI = CC50/IC50 G. duodenalis” value (Giardia duodenalis) was greater than 30, the IC50 (Giardia duodenalis; Giardia duodenalis, 48 h) was 3.23 ± 0.11 µM and the “SI = CC50/IC50 T. vaginalis” value (Trichomonas vaginalis) was greater than 20. For the same compound, the IC50 (Trichomonas vaginalis) was 4.82 ± 1.08 µM, the CC50 at 48 h ([1]; VERO cells) was greater than 100 µM and the melting point was 162.3 to 163.5 °C.
In the case of Cc1ncc([N+](=O)[O-])n1CC(C)OC(=O)Nc1ccc([N+](=O)[O-])cc1 (centres unmarked) [Compound 10, 1-methyl-2-(2-methyl-5-nitro-1H-imidazol-1-yl)ethyl (4-nitrophenyl)carbamate], the “SI = CC50/IC50 G. duodenalis” value (Giardia duodenalis) is reported as greater than 116, the IC50 (Giardia duodenalis; Giardia duodenalis, 48 h) is reported as 0.86 ± 0.09 µM and the “SI = CC50/IC50 T. vaginalis” value (Trichomonas vaginalis) is reported as greater than 10. For the same compound, the IC50 (Trichomonas vaginalis) was 9.99 ± 0.56 µM, the CC50 at 48 h ([1]; read-out: CC50 VERO Cells) was greater than 100 µM and the melting point was 235.4 °C (dec.).
In the case of Cc1ncc([N+](=O)[O-])n1CCO [Metronidazole, metronidazole, reference compound], the IC50 (Trichomonas vaginalis) is reported as 0.93 ± 0.12 µM and the CC50 at 48 h ([1]; VERO cells) is reported as greater than 100 µM.
In the case of Cc1ncc([N+](=O)[O-])n1CC(C)O (centres unmarked) [Secnidazole, secnidazole, reference compound], the “SI = CC50/IC50 G. duodenalis” value (Giardia duodenalis) is reported as greater than 24, the IC50 (Giardia duodenalis; Giardia duodenalis, 48 h) is reported as 4.11 ± 0.12 µM and the “SI = CC50/IC50 T. vaginalis” value (Trichomonas vaginalis) is reported as greater than 7. It also gave an IC50 (Trichomonas vaginalis) of 13.5 ± 1.23 µM and a CC50 at 48 h ([1]; VERO cells) greater than 100 µM.
